Patent publication US20170342451A1, “BIOSYNTHESIS OF PACLITAXEL INTERMEDIATE” (Board of Trustees of Michigan State University, priority 2012, published 2017)

Target: T1, TycA (Brevibacillus parabrevis, UniProt P09095)
T1 construct: this wild-type tycA cDNA encoding the A-, T-, and E-domains was subcloned into a pSU18 vector; made in house; host or cells: Escherichia coli BL21(DE3)
T1 sequence (P09095 with tags, fused parts or gaps): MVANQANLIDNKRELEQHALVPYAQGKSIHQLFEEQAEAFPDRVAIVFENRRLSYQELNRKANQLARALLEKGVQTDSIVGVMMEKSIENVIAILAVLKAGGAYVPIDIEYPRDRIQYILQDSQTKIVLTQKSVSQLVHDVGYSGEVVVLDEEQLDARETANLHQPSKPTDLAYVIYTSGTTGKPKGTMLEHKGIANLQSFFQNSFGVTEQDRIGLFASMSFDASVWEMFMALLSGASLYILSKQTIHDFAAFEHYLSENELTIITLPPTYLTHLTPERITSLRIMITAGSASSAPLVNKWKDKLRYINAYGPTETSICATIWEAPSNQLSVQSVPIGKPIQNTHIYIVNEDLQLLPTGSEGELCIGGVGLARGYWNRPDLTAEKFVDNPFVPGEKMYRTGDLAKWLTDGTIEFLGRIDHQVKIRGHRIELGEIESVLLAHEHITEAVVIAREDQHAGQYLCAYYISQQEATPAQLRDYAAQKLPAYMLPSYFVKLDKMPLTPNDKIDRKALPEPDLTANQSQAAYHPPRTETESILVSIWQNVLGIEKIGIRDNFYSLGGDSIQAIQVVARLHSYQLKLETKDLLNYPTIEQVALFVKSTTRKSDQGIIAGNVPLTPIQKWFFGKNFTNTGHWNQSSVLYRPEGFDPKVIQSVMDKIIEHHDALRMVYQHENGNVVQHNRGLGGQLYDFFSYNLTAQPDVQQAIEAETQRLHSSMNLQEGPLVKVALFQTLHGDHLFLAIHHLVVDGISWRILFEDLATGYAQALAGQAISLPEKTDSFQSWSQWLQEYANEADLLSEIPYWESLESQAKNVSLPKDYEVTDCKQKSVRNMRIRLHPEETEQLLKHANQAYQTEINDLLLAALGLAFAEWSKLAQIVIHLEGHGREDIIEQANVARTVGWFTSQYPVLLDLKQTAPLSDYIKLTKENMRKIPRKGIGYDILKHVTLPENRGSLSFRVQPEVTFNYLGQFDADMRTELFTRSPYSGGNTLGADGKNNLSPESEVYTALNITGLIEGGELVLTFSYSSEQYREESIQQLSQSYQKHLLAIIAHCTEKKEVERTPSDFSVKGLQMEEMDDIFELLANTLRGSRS
Experiment: N-acetylcysteamine ligase reaction kinetics, TycA
Type: biochemical, Brevibacillus brevis
Conditions: NAC with (S)-α-Phe as cosubstrate; for kcat^NAC: TycA with NAC at apparent saturation
Protocol: Substrates (S)-α-phenylalanine, (R)-β-phenylalanine, and (2R,3S)-phenylisoserine (each at 1 mM) were separately incubated with TycA or TycA-S563A (20 μg) in the presence of N-acetylcysteamine (NAC; 1 mM), ATP (1 mM), and Mg^2+ (3 mM) to establish steady-state conditions with respect to protein concentration and time at 31° C. Under steady-state conditions, either (S)-phenylalanine, (R)-β-phenylalanine, or (2R,3S)-phenylisoserine at 5, 10, 20, 40, 80, 160, 250, 500, 1000 and 2000 μM was separately incubated with TycA or TycA-S563A (20 μg), ATP (1 mM), Mg^2+ (3 mM), and N-acetylcysteamine (1 mM, ‘NAC’) in duplicate, single stopped-time ([…]) 100 μL assays. The reactions were quenched by acidification to a pH of about 2 (10% formic acid in distilled water). […] The samples were analyzed on a Quattro-Premier Electro-Spray Mass Spectrometer coupled with Acquity® UPLC system fitted with a C18 Ascentis Express column (2.5×50 mm, 2.7 μm) at 30° C. […] In brief, the effluent from the chromatography column was directed to the Quattro Premier ESI mass spectrometer, in MRM scan mode, to quantify the biosynthetic acyl SNAC products. […] A standard curve was used to convert the peak area under the curve of the monitored fragment ion to concentration for each biosynthetic phenylpropionyl SNAC.
Authentic (5)-α-phenylalanyl, (R/S)-β-phenylalanyl- and (2R,3S)-phenylisoserinyl-SNAC were used to construct the standard curves by correlating the peak area under the curve of the monitored ion to concentration of the standard (at 0.16, 0.32, 0.64, 1.3, 2.5, 5, 10, 20, 40, 80, 160 and 320 μM) using linear regression analysis.
The KM values of TycA and TycA-S563A for N-acetylcysteamine (NAC) was assessed by incubating each enzyme separately with (S)-α-phenylalanine (1 mM), MgCl2 (3 mM), ATP (1 mM), and N-acetylcysteamine at 5, 10, 20, 40, 80, 160, 250, 500, 1000 and 2000 μM at 31° C. for 20 min. […]

Compound | kcat^NAC [s⁻¹] | Km (TycA with NAC) [µM]
N[C@@H](c1ccccc1)[C@@H](O)C(=O)O [(2R,3S)-PheIso, (2R,3S)-phenylisoserine] | 0.00317 ± 0.00017 | 132 ± 56
N[C@H](CC(=O)O)c1ccccc1 [(R)-β-Phe, (R)-β-phenylalanine] | 0.006 ± 0.001 | 
